From publication PMC6637749 (Journal of medicinal chemistry, 2018)

Columns and labels:
[1] = tested on: panel of melanoma cell lines (A375, M14, RPMI7951); assay: Antiproliferative activity, panel of melanoma cell lines; type: cell-based, human; conditions: for IC50: Homo sapiens, 72 h, read-out: IC50 values, range over the melanoma cell lines
Bovine brain tubulin = Bovine brain tubulin (Bos taurus, UniProt P81947+Q6B856); assay: Tubulin polymerization assay; type: biochemical; conditions: 10 μM compound, absorbance at 340 nm, 37 °C; vehicle control Vmax = 27
Chain of Bovine brain tubulin (Q6B856 whole entry): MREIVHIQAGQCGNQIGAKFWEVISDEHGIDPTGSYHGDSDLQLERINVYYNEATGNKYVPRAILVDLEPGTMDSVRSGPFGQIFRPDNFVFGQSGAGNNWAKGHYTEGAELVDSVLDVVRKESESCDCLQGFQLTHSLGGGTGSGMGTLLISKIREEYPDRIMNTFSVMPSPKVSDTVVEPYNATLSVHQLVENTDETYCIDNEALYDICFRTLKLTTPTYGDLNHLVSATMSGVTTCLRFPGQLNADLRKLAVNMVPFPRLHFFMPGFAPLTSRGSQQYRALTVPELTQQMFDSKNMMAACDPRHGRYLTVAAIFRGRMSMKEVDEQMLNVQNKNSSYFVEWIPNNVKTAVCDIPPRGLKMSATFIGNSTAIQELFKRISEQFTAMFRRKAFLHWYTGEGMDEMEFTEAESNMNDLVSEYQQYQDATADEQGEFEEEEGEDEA
Chain of Bovine brain tubulin (P81947 whole entry): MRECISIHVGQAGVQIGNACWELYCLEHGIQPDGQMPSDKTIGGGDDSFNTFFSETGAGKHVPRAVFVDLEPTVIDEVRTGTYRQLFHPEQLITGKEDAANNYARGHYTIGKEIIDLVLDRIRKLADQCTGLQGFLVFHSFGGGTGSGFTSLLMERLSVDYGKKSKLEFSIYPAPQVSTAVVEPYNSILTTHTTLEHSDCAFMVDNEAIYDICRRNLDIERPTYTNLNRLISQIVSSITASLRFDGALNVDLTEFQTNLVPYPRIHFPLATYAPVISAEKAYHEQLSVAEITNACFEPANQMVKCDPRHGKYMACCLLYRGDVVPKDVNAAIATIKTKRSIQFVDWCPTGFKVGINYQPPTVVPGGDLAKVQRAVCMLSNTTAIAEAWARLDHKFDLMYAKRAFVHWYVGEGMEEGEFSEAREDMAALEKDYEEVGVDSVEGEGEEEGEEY

A375 melanoma xenograft = type: in vivo; conditions: doses up to 30 mg/kg i.p., nude mice
[2] = tested on: docetaxel-resistant DU145/TxR prostate cancer cell line; assay: Cytotoxicity; type: cell-based; conditions: at concentrations up to 1 μM

Structure (SMILES)	IC50 [1] [nM]	also measured
O=C(c1ccc2c(c1)OCCO2)c1c[nH]c(-c2c[nH]c3ccccc23)n1 [13a, (2-(1H-Indol-3-yl)-1H-imidazol-5-yl)(2,3-dihydrobenzo[b][1,4]-dioxin-6-yl)methanone]	119 to 218	–
COc1cc(C(=O)c2c[nH]c(-c3c[nH]c4ccccc34)n2)cc2c1OCCO2 [13c, (2-(1H-Indol-3-yl)-1H-imidazol-5-yl)(8-methoxy-2,3-dihydrobenzo[b][1,4]dioxin-6-yl)methanone]	11.3 to 29.2	–
COc1cc(C(=O)c2c[nH]c(-c3c[nH]c4ccccc34)n2)cc2c1OCO2 [13d, (2-(1H-Indol-3-yl)-1H-imidazol-5-yl)(7-methoxybenzo[d][1,3]-dioxol-5-yl)methanone]	3.5 to 5.6	fold more active than 13b ([1]; antiproliferative IC50 compared with 13b): 30 fold; fold more potent than 13c ([1]; antiproliferative IC50 compared with 13c): ~ 4 fold
COc1cc(C(=O)c2c[nH]c(-c3c[nH]c4ccccc34)n2)cc2c1OCCCO2 [13e, (2-(1H-Indol-3-yl)-1H-imidazol-5-yl)(9-methoxy-3,4-dihydro-2H-benzo[b][1,4]dioxepin-7-yl)methanone]	32.2 to 47.7	–
COc1cc(C(=O)c2c[nH]c(-c3c[nH]c4ccccc34)n2)cc2c1OC=CO2 [13f, (2-(1H-Indol-3-yl)-1H-imidazol-5-yl)(8-methoxybenzo[b][1,4]-diOXin-6-yl)methanone]	1.1 to 3.3	tubulin polymerization Vmax (Bovine brain tubulin): 0; apparent toxicity (mouse weights and activities) (A375 melanoma xenograft): without causing apparent toxicity
COc1cc(C(=O)c2c[nH]c(-c3cccc4[nH]ccc34)n2)cc2c1OC=CO2 [compound 19, (2-(1H-Indol-4-yl)-1H-imidazol-5-yl)(8-methoxybenzo[b][1,4]-diOXin-6-yl)methanone]	–	fold reduced antiproliferative activity compared to 13f ([1]; compared with 13f): ~ 11 fold
COc1cc(C(=O)c2c[nH]c(-c3c[nH]c4cccc(C)c34)n2)cc2c1OC=CO2 [compound 25, (8-Methoxybenzo[b][1,4]dioxin-6-yl) (2-(4-methyl-1H-indol-3-yl)-1H-imidazol-5-yl)methanone]	6.1 to 8.8	–
CC(=O)O[C@H]1C(=O)[C@@]2(C)[C@H]([C@H](OC(=O)c3ccccc3)[C@]3(O)C[C@H](OC(=O)[C@H](O)[C@@H](NC(=O)c4ccccc4)c4ccccc4)C(C)=C1C3(C)C)[C@]1(OC(C)=O)CO[C@@H]1C[C@@H]2O [paclitaxel]	–	effect in DU145/TxR cells [2]: no effect was observed at all
